Results on 1 molecule are retold here after ChEMBL document CHEMBL1142584, “Insect antifeedants from Croton jatrophoides: structures of zumketol, zumsenin, and zumsenol” (2005).

Common to all, as to type: functional
Experiment [1] concerns Spodoptera frugiperda. As to the kind of experiment: Antifeedant activity against Spodoptera frugiperda second-instar larvae assessed as 50 % protection after 48 hrs.
Experiment [2] has as its system Pectinophora gossypiella. As to the kind of experiment: Antifeedant activity against Pectinophora gossypiella second-instar larvae assessed as 90 % protection after 48 hrs.
Experiment [3] relates to Pectinophora gossypiella. The experiment can be described thus: Antifeedant activity against Pectinophora gossypiella second-instar larvae assessed as 50 % protection after 48 hrs.
Experiment [4] deals with Spodoptera frugiperda. The experiment can be described thus: Antifeedant activity against Spodoptera frugiperda second-instar larvae assessed as 90 % protection after 48 hrs.

Structures are written as SMILES.

As for `CC(=O)O[C@H]1[C@H](OC(C)=O)[C@]2(C)C(=CC[C@H]2c2ccoc2)[C@]2(C)C(=O)C[C@H]3C(C)(C)O[C@H]4C[C@H](O)C(=O)[C@]43[C@@H]12` [ZUMKETOL], the Activity in the experiment with Spodoptera frugiperda [1] is 3 µg/mL; with Pectinophora gossypiella [2], 2 µg/mL; in the experiment with Pectinophora gossypiella [3], 0.5 µg/mL; in the experiment with Spodoptera frugiperda [4] it was 16 µg/mL.
